Laboratory results: US8394769B2, “Anti-hypertensive agent” (MG Pharma Inc., priority 2007, dated 2013)

System: Spontaneously hypertensive rats (SHR/Izm)
Assay: Systolic blood pressure in spontaneously hypertensive rats after single dose of synthesized peptides (2) to (6) (tail-cuff method)
Format: in vivo, rat
Details: single dose 50 mg/kg body weight, *p < 0.05, **p < 0.01
Source text: The following peptides were synthesized according to known methods, based on the amino acid sequences of peptides isolated from the globin proteolysate prepared in Experimental Example 3 and identified. The peptide (WGKV; SEQ ID NO:3) (3) corresponds to a peptide produced by one amino acid deletion at the C terminus from the amino acid sequence of the peptide (WGKVN; SEQ ID NO:2) (2), and the peptide (WGK; SEQ ID NO:4) (4) corresponds to a peptide produced by deleting a further amino acid at the C terminus.
Spontaneously hypertensive rats (SHR/Izm, male, 12-week-old, body weight: 285 g, Japan SLC, Inc.) were administered in a single dose with the peptides synthesized above (peptides (2) to (6)) in an amount of 50 mg/kg body weight. Two, four, and six hours after the start of administration, the systolic blood pressures of the rats were measured using a non-heating non-invasive blood pressure monitor (“MK-2000”, manufactured by Muromachi Kikai Co., Ltd.) by the tail-cuff method without using anesthesia. Spontaneously hypertensive rats as a control group were orally administered with a solvent (distilled water), and the systolic blood pressures of the rats were measured in a similar manner.

Row | Substance | Reduction in blood pressure, 2 hours after administration | Reduction in blood pressure, 4 hours after administration | Reduction in blood pressure, 6 hours after administration
1 | Ala-Ala-Trp-Gly-Lys (AAWGK; Peptide found in globin hydrolysate) | −7 ± 4 mmHg | −8 ± 12 mmHg | −4 ± 8 mmHg
2 | Phe-Glu-Ser (FES; Peptide found in globin hydrolysate) | −15 ± 4* mmHg | −13 ± 8 mmHg | −15 ± 6 mmHg
3 | Trp-Gly-Lys (WGK; Peptide found in globin hydrolysate) | −3 ± 7 mmHg | −23 ± 8** mmHg | −15 ± 8 mmHg
4 | Trp-Gly-Lys-Val (WGKV; Peptide found in globin hydrolysate) | −9 ± 3 mmHg | −4 ± 4 mmHg | −3 ± 3 mmHg
5 | Trp-Gly-Lys-Val-Asn (WGKVN; Peptide found in globin hydrolysate) | −16 ± 4** mmHg | −12 ± 4* mmHg | −14 ± 3** mmHg
